Measurements reported in patent US20160235752A1, “COMPOSITIONS, METHODS OF USE, AND METHODS OF TREATMENT” (THE UNIVERSITY OF NEW ORLEANS, priority 2013, published 2016).
≈ marks a conversion by molar mass, not a printed value.

Assays:
[1] = system: Candida albicans (ATCC no. 10231); assay: MIC determination by broth microdilution (NCCLS), visual scoring; assay type: cell-based; settings: for MIC80: Candida albicans, ATCC10231, read-out: MIC80 C. albicans
Method: The antifungal activity of the 2,4,6-pyrimidinetrione analogs shown in Schemes 2-6 were evaluated in vitro using Candida albicans (ATCC no. 10231) and Candida glabrata (ATCC no 48435). All assays were done in accordance with NCCLS reference documents^29.
(§1) Master stock concentrations of all tested compounds were prepared to ensure that the maximum final concentration of DMSO was 1% or less. Subsequent 2-fold serial dilutions were made using sterile water to a final concentration of 1280-5.00 μg/ml. A final 10-fold dilution of each drug was made by aliquotting 0.1 mL of each drug dilution into 0.9 mL of fungal suspension in RPMI 1640 media with 10 mM HEPES buffer added (see methodology below), giving final concentrations tested in the range of 128-0.5 μg/ml.
(§2) Antifungal susceptibility studies and minimal inhibitory concentrations (MIC) values for Candida albicans (ATCC no. 10231) and Candida glabrata (ATCC no. 48435) were determined by the broth microdilution technique in accordance with NCCLS reference documents. Microdilution panels ranged from 0.5 to 128 μg/mL. All organisms were subcultured on Sabouraud agar and passaged to ensure purity and viability. The initiating inocula were prepared by picking 5-7 isolated colonies ˜1 mm in diameter from freshly prepared YM agar plates. Colonies were resuspended in sterile water, vortexed and the cell density was adjusted spectrophotometrically to the transmittance of a 0.5 McFarland standard at a wavelength of 530 nm, to yield a stock suspension of 1×10^6-5×10^6 cells/mL. The stock was allowed to hydrate for 30 minutes at room temperature. A working suspension was then made by diluting the stock 1:50 with RPMI 1640 media containing HEPES buffer. The working suspension was used for all assays. The plates were incubated at 35° C. for 48-72 hours in a humid atmosphere. Growth was scored visually. MIC values are defined as the lowest concentration of agent that prevents any discernible growth, ˜80% reduction of growth, as compared with drug-free control wells. All assays were run in parallel using either fluconazole or amphotericin B at the NCCLS recommended concentrations^29 as a drug control (Sigma-Aldrich).

[2] = system: Candida glabrata (ATCC no. 48435); assay: as above; assay type: cell-based; settings: for MIC80: Nakaseomyces glabratus, ATCC48435, read-out: MIC80 C. glabrata
Method: The antifungal activity of the 2,4,6-pyrimidinetrione analogs shown in Schemes 2-6 were evaluated in vitro using Candida albicans (ATCC no. 10231) and Candida glabrata (ATCC no 48435). All assays were done in accordance with NCCLS reference documents^29. The results of these screenings are summarized in Tables 1-9 as the minimal inhibitory concentrations that inhibited more than 80% fungal growth as compared to the positive controls in 1% DMSO and RPMI media. All MIC screens were done using a visual scoring method as opposed to spectroscopic methods of analysis, due to the physical properties of many of the compounds altering their absorbance spectra relative to the positive, negative and drug controls.
as §1, with “None of the compounds tested over the course of these studies were soluble in water and DMSO was used to dilute each compound tested. Master” for “Master”
as §2

[3] = Table 5, Schiff Bases of 5-acylpyrimidinetriones
[4] = Table 7, Phenylhydrazones of 5-Acylpyrimidinetriones
[5] = Table 2, 5-Arylidene-2,4,6-pyrimidinetriones
[6] = Table 1, 5-Acyl-2,4,6-pyrimidinetriones, >80% growth inhibition, RPMI, 1% DMSO
[7] = Table 8, N-Acylhydrazones of 5-Acylpyrimidinetriones
[8] = Table 3, 5-Alkylated Pyrimidinetriones

## CC(=Nc1ccncc1)C1C(=O)N(C)C(=O)N(C)C1=O [BA84]
[1]; [3]
  MIC80 C. albicans: — (none of the 5-acyl-2,4,6-pyrimidinetriones, 5-alkylated pyrimidinetriones or the 5,5-dialkylated pyrimidinetriones showed antifungal activity through 125 μg/mL)
[2]; [3]
  MIC80 C. glabrata: — (none of the 5-acyl-2,4,6-pyrimidinetriones, 5-alkylated pyrimidinetriones or the 5,5-dialkylated pyrimidinetriones showed antifungal activity through 125 μg/mL)

## C/C(=N\Nc1ccccc1)C1C(=O)NC(=O)NC1=O [BA85, 5-[(1E)-1-(2-phenylhydrazinylidene)ethyl]pyrimidine-2,4,6-trione]
[1]
  MIC80: 2 µg/mL (≈ 7.68 µM)
[2]
  MIC80: 2 µg/mL (≈ 7.68 µM)

## CC(=Nc1ccncc1)C1C(=O)NC(=O)NC1=O [BA88]
[1]; [3]
  MIC80 C. albicans: — (none of the 5-acyl-2,4,6-pyrimidinetriones, 5-alkylated pyrimidinetriones or the 5,5-dialkylated pyrimidinetriones showed antifungal activity through 125 μg/mL)
[2]; [3]
  MIC80 C. glabrata: — (none of the 5-acyl-2,4,6-pyrimidinetriones, 5-alkylated pyrimidinetriones or the 5,5-dialkylated pyrimidinetriones showed antifungal activity through 125 μg/mL)

## C/C(=N\CCCCCC(=O)O)C1C(=O)NC(=O)NC1=O [BA29, 6-{(E)-[1-(2,4,6-trioxohexahydropyrimidin-5-yl)ethylidene]amino}hexanoic acid]
[1]
  MIC80: > 125 µg/mL
[2]
  MIC80: > 125 µg/mL

## CN1C(=O)C(C(=NNc2ccc(C(=O)O)cc2)c2ccccc2)C(=O)N(C)C1=O [BA33]
[1]; [4]
  MIC80 C. albicans: — (none of the 5-acyl-2,4,6-pyrimidinetriones, 5-alkylated pyrimidinetriones or the 5,5-dialkylated pyrimidinetriones showed antifungal activity through 125 μg/mL)
[2]; [4]
  MIC80 C. glabrata: — (none of the 5-acyl-2,4,6-pyrimidinetriones, 5-alkylated pyrimidinetriones or the 5,5-dialkylated pyrimidinetriones showed antifungal activity through 125 μg/mL)

## COc1ccc(C=C2C(=O)N(C)C(=O)N(C)C2=O)c(OC)c1OC [BA51]
[1]; [5]
  MIC80 C. albicans: — (none of the 5-acyl-2,4,6-pyrimidinetriones, 5-alkylated pyrimidinetriones or the 5,5-dialkylated pyrimidinetriones showed antifungal activity through 125 μg/mL)
[2]; [5]
  MIC80 C. glabrata: — (none of the 5-acyl-2,4,6-pyrimidinetriones, 5-alkylated pyrimidinetriones or the 5,5-dialkylated pyrimidinetriones showed antifungal activity through 125 μg/mL)

## CN1C(=O)C(C(=O)c2ccccc2)C(=O)N(C)C1=O [BA3, 5-benzoyl-1,3-dimethylpyrimidine-2,4,6-trione]
[1]
  MIC80: > 125 µg/mL
[2]
  MIC80: > 125 µg/mL

## CN1C(=O)C(C(=O)c2ccc([N+](=O)[O-])cc2)C(=O)N(C)C1=O [BA7]
[1]; [6]
  MIC80 C. albicans: — (none of the 5-acyl-2,4,6-pyrimidinetriones, 5-alkylated pyrimidinetriones or the 5,5-dialkylated pyrimidinetriones showed antifungal activity through 125 μg/mL)
[2]; [6]
  MIC80 C. glabrata: — (none of the 5-acyl-2,4,6-pyrimidinetriones, 5-alkylated pyrimidinetriones or the 5,5-dialkylated pyrimidinetriones showed antifungal activity through 125 μg/mL)

## CN1C(=O)NC(=O)C(C(=O)c2ccccc2)C1=O (stereo not shown) [BA2]
[1]; [6]
  MIC80 C. albicans: — (none of the 5-acyl-2,4,6-pyrimidinetriones, 5-alkylated pyrimidinetriones or the 5,5-dialkylated pyrimidinetriones showed antifungal activity through 125 μg/mL)
[2]; [6]
  MIC80 C. glabrata: — (none of the 5-acyl-2,4,6-pyrimidinetriones, 5-alkylated pyrimidinetriones or the 5,5-dialkylated pyrimidinetriones showed antifungal activity through 125 μg/mL)

## O=C1NC(=O)C(C(=NNc2ccc(C(=O)O)cc2)C2C(=O)NC(=O)NC2=O)C(=O)N1 [BA38]
[1]; [4]
  MIC80 C. albicans: — (none of the 5-acyl-2,4,6-pyrimidinetriones, 5-alkylated pyrimidinetriones or the 5,5-dialkylated pyrimidinetriones showed antifungal activity through 125 μg/mL)
[2]; [4]
  MIC80 C. glabrata: 125 µg/mL (≈ 300 µM)

## CN1C(=O)C(C(=O)c2cc([N+](=O)[O-])cc([N+](=O)[O-])c2)C(=O)N(C)C1=O [BA9]
[1]; [6]
  MIC80 C. albicans: — (none of the 5-acyl-2,4,6-pyrimidinetriones, 5-alkylated pyrimidinetriones or the 5,5-dialkylated pyrimidinetriones showed antifungal activity through 125 μg/mL)
[2]; [6]
  MIC80 C. glabrata: — (none of the 5-acyl-2,4,6-pyrimidinetriones, 5-alkylated pyrimidinetriones or the 5,5-dialkylated pyrimidinetriones showed antifungal activity through 125 μg/mL)

## O=C1NC(=O)C(C(=O)c2cc([N+](=O)[O-])cc([N+](=O)[O-])c2)C(=O)N1 [BA8]
[1]; [6]
  MIC80 C. albicans: — (none of the 5-acyl-2,4,6-pyrimidinetriones, 5-alkylated pyrimidinetriones or the 5,5-dialkylated pyrimidinetriones showed antifungal activity through 125 μg/mL)
[2]; [6]
  MIC80 C. glabrata: — (none of the 5-acyl-2,4,6-pyrimidinetriones, 5-alkylated pyrimidinetriones or the 5,5-dialkylated pyrimidinetriones showed antifungal activity through 125 μg/mL)

## COC(=O)NN=C(C)C1C(=O)NC(=O)NC1=O [BA86]
[1]; [7]
  MIC80 C. albicans: — (none of the 5-acyl-2,4,6-pyrimidinetriones, 5-alkylated pyrimidinetriones or the 5,5-dialkylated pyrimidinetriones showed antifungal activity through 125 μg/mL)
[2]; [7]
  MIC80 C. glabrata: — (none of the 5-acyl-2,4,6-pyrimidinetriones, 5-alkylated pyrimidinetriones or the 5,5-dialkylated pyrimidinetriones showed antifungal activity through 125 μg/mL)

## CN1C(=O)C(/C=N/Nc2ccc([N+](=O)[O-])cc2)C(=O)N(C)C1=O [BA23, 1,3-Dimethyl-5-{(E)-[2-(4-nitrophenyl)hydrazinylidene]methyl}pyrimidine-2,4,6-trione]
[1]
  MIC80: 2 µg/mL (≈ 6.26 µM)
[2]
  MIC80: 2 µg/mL (≈ 6.26 µM)

## COc1ccc(C=C2C(=O)N(C)C(=O)N(C)C2=O)cc1 [BA50]
[1]; [5]
  MIC80 C. albicans: — (none of the 5-acyl-2,4,6-pyrimidinetriones, 5-alkylated pyrimidinetriones or the 5,5-dialkylated pyrimidinetriones showed antifungal activity through 125 μg/mL)
[2]; [5]
  MIC80 C. glabrata: — (none of the 5-acyl-2,4,6-pyrimidinetriones, 5-alkylated pyrimidinetriones or the 5,5-dialkylated pyrimidinetriones showed antifungal activity through 125 μg/mL)

## O=C1NC(=O)C(CCCc2ccccc2)C(=O)N1 [BA66]
[1]; [8]
  MIC80 C. albicans: — (none of the 5-acyl-2,4,6-pyrimidinetriones, 5-alkylated pyrimidinetriones or the 5,5-dialkylated pyrimidinetriones showed antifungal activity through 125 μg/mL)
[2]; [8]
  MIC80 C. glabrata: — (none of the 5-acyl-2,4,6-pyrimidinetriones, 5-alkylated pyrimidinetriones or the 5,5-dialkylated pyrimidinetriones showed antifungal activity through 125 μg/mL)

## O=C1NC(=O)C(/C(=N/Nc2ccc([N+](=O)[O-])cc2[N+](=O)[O-])c2ccccc2)C(=O)N1 [BA30, 5-[(Z)-[2-(2,4-Dinitrophenyl)hydrazinylidene](phenyl)methyl]pyrimidine-2,4,6-trione]
[1]
  MIC80: > 125 µg/mL
[2]
  MIC80: > 125 µg/mL

## CN1C(=O)C(/C=N/n2cnnc2)C(=O)N(C)C1=O [BA110]
[1]; [3]
  MIC80 C. albicans: — (none of the 5-acyl-2,4,6-pyrimidinetriones, 5-alkylated pyrimidinetriones or the 5,5-dialkylated pyrimidinetriones showed antifungal activity through 125 μg/mL)

## CN1C(=O)C(C=NNS(=O)(=O)c2ccccc2)C(=O)N(C)C1=O [BA137]
[1]; Table 9, Benzenesuifonohydrazones of 5-Acylpyrimidinetrione
  MIC80 C. albicans: — (none of the 5-acyl-2,4,6-pyrimidinetriones, 5-alkylated pyrimidinetriones or the 5,5-dialkylated pyrimidinetriones showed antifungal activity through 125 μg/mL)

## CN/N=C(\C)C1C(=O)NC(=O)NC1=O [BA121, 5-[(1E)-1-(2-methylhydrazinylidene)ethyl]pyrimidine-2,4,6-trione]
[1]
  MIC80: > 125 µg/mL

## CN1C(=O)C(C=Nc2ccc([N+](=O)[O-])cc2)C(=O)N(C)C1=O [BA102]
[1]; [3]
  MIC80 C. albicans: — (none of the 5-acyl-2,4,6-pyrimidinetriones, 5-alkylated pyrimidinetriones or the 5,5-dialkylated pyrimidinetriones showed antifungal activity through 125 μg/mL)

## C/C(=N\N)C1C(=O)N(C)C(=O)N(C)C1=O [BA119, 5-[(1E)-1-hydrazinylideneethyl]-1,3-dimethylpyrimidine-2,4,6-trione]
[1]
  MIC80: > 125 µg/mL

## CN1C(=O)C(C=Nc2ccccn2)C(=O)N(C)C1=O [BA104]
[1]; [3]
  MIC80 C. albicans: — (none of the 5-acyl-2,4,6-pyrimidinetriones, 5-alkylated pyrimidinetriones or the 5,5-dialkylated pyrimidinetriones showed antifungal activity through 125 μg/mL)
